pIC50: −log10 of the molar value.

This assay has as its target T1, MAGL (Homo sapiens, UniProt Q99685).
T1 sequence (Q99685 1-303): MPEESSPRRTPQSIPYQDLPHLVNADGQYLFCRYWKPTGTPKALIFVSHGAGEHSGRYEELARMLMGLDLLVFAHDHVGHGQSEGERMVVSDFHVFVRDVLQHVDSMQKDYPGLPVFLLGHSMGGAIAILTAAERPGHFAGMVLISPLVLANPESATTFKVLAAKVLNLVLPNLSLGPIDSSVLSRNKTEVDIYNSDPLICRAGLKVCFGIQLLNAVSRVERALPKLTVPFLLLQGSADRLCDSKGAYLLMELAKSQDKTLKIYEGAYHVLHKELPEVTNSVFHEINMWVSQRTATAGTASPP
In words: MAGL inhibition, 2-AG assay (hydrolysis of 2-arachidonoylglycerol, arachidonic acid by mass spectrometry). It is filed as biochemical. To be noted: 2-AG assay (footnote [b]). The method in brief: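 Hydrolysis of 8 μM 2-arachidonoylglycerol by […] was run for 30 min at RT after a 15 min compound preincubation, in Tris/EDTA/Tween buffer. Test compounds spanned […]. The product was measured by online SPE-MS/MS (transitions 303.1→259.1 and 311.1→267.0), and activity was derived from the arachidonic acid/d8-arachidonic acid signal ratio.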
One may read the pIC50 as −log10 of the IC50, conventionally taken in molar units. Low readings indicate a high IC50, high ones a low IC50. Take `O=C1CO[C@H]2CCN(C(=O)N3CC(c4ccc(N5CCC(C(F)(F)F)C5)cc4)C3)C[C@H]2N1` (single isomer, unassigned) [Example 197, (4aR,8aS)-6-(3-(4-((R or S)-3-(Trifluoromethyl)pyrrolidin-1-yl)phenyl)azetidine-1-carbonyl)hexahydro-2H-pyrido[4,3-b][1,4]oxazin-3(4H)-one]: the pIC50 is 9.30.

Turning to `O=C1CO[C@H]2CCN(C(=O)N3CC(c4ccc(N5CCC(C(F)(F)F)C5)cc4)C3)C[C@H]2N1` (single isomer, unassigned) [Example 198, (4aR,8aS)-6-(3-(4-((S or R)-3-(Trifluoromethyl)pyrrolidin-1-yl)phenyl)azetidine-1-carbonyl)hexahydro-2H-pyrido[4,3-b][1,4]oxazin-3(4H)-one], the pIC50 was 9.00.

Take `O=C1CO[C@H]2CCN(C(=O)N3CCC(c4cccc(OC(F)(F)F)c4)C3)C[C@H]2N1` (single isomer, unassigned) [Example 221, (4aR,8aS)-6-[3-(S or R)-[3-(Trifluoromethoxy)phenyl]pyrrolidine-1-carbonyl]-4,4a,5,7,8,8a-hexahydropyrido[4,3-b][1,4]oxazin-3-one]: the pIC50 is 6.75.

The compound `O=C1CO[C@H]2CCN(C(=O)N3CCC(c4cccc(OC(F)(F)F)c4)C3)C[C@H]2N1` (single isomer, unassigned) [Example 222, (4aR,8aS)-6-[3-(R or S)-[3-(Trifluoromethoxy)phenyl]pyrrolidine-1-carbonyl]-4,4a,5,7,8,8a-hexahydropyrido[4,3-b][1,4]oxazin-3-one] had a pIC50 of 6.94.

Compound `O=C1CO[C@H]2CCN(C(=O)N3CCC(c4cccc(Br)c4)C3)C[C@H]2N1` (single isomer, unassigned) [Example 228, (4aR,8aS)-6-[(3S or R)-3-(3-Bromophenyl)pyrrolidine-1-carbonyl]-4,4a,5,7,8,8a-hexahydropyrido[4,3-b][1,4]oxazin-3-one] showed a pIC50 of 6.79.

`O=C1CO[C@H]2CCN(C(=O)N3CCC(c4cccc(Br)c4)C3)C[C@H]2N1` (single isomer, unassigned) [Example 229, (4aR,8aS)-6-[(3R or S)-3-(3-Bromophenyl)pyrrolidine-1-carbonyl]-4,4a,5,7,8,8a-hexahydropyrido[4,3-b][1,4]oxazin-3-one] gave a pIC50 of 6.64.

In turn, `O=C1CO[C@H]2CCN(C(=O)N3CCC(c4cc(Cl)cc(OCC(F)(F)F)c4)C3)C[C@H]2N1` (single isomer, unassigned) [Example 238, (4aR,8aS)-6-((R or S)-3-(3-Chloro-5-(2,2,2-trifluoroethoxy)phenyl)pyrrolidine-1-carbonyl)hexahydro-2H-pyrido[4,3-b][1,4]oxazin-3(4H)-one] gave a pIC50 of 6.81.

Take `O=C1CO[C@H]2CCN(C(=O)N3CCC(c4cc(Cl)cc(OCC(F)(F)F)c4)C3)C[C@H]2N1` (single isomer, unassigned) [Example 239, (4aR,8aS)-6-((S or R)-3-(3-Chloro-5-(2,2,2-trifluoroethoxy)phenyl)pyrrolidine-1-carbonyl)hexahydro-2H-pyrido[4,3-b][1,4]oxazin-3(4H)-one]: the pIC50 is 7.41.

As for `CC(Oc1ccc(C2CN(C(=O)N3CC[C@@H]4OCC(=O)N[C@@H]4C3)C2)cc1)C(F)(F)F` (single isomer, unassigned) [Example 246, (4aR,8aS)-6-[3-(R or S)-[4-(2,2,2-Trifluoro-1-methyl-ethoxy)phenyl]azetidine-1-carbonyl]-4,4a,5,7,8,8a-hexahydropyrido[4,3-b][1,4]oxazin-3-one], the pIC50 is 9.00.

In turn, `CC(Oc1ccc(C2CN(C(=O)N3CC[C@@H]4OCC(=O)N[C@@H]4C3)C2)cc1)C(F)(F)F` (single isomer, unassigned) [Example 248, (4aR,8aS)-6-[3-(S or R)-[4-(2,2,2-Trifluoro-1-methyl-ethoxy)phenyl]azetidine-1-carbonyl]-4,4a,5,7,8,8a-hexahydropyrido[4,3-b][1,4]oxazin-3-one] gave a pIC50 of 9.00.

`O=C1CO[C@H]2CCN(C(=O)N3CC(c4ccc(N5CCC(C(F)(F)F)C5)cn4)C3)C[C@H]2N1` (single isomer, unassigned) [Example 271, (4aR,8aS)-6-(3-(5-((R or S)-3-(Trifluoromethyl)pyrrolidin-1-yl)pyridin-2-yl)azetidine-1-carbonyl)hexahydro-2H-pyrido[4,3-b][1,4]oxazin-3(4H)-one] showed a pIC50 of 7.66.

In the case of `O=C1CO[C@H]2CCN(C(=O)N3CC(c4ccc(N5CCC(C(F)(F)F)C5)cn4)C3)C[C@H]2N1` (single isomer, unassigned) [Example 272, (4aR,8aS)-6-(3-(5-((S or R)-3-(Trifluoromethyl)pyrrolidin-1-yl)pyridin-2-yl)azetidine-1-carbonyl)hexahydro-2H-pyrido[4,3-b][1,4]oxazin-3(4H)-one], the pIC50 was 7.77.

In turn, `O=C1CO[C@H]2CCN(C(=O)N3CC(c4ccc(N5CCC(C(F)(F)F)C5)nc4)C3)C[C@H]2N1` (single isomer, unassigned) [Example 274, (4aR,8aS)-6-[3-[6-[3-(R or S)-(Trifluoromethyl)pyrrolidin-1-yl]-3-pyridyl]azetidine-1-carbonyl]-4,4a,5,7,8,8a-hexahydropyrido[4,3-b][1,4]oxazin-3-one] showed a pIC50 of 8.70.

Consider `CC(C)(C)[Si](C)(C)OCCn1cc(C2CCN(C(=O)N3CC[C@@H]4OCC(=O)NC4C3)CC2)c2cc(Cl)ccc21` (stereo in doubt) [Example 268, (4aS,8aS)-6-[4-[1-[2-[tert-Butyl(dimethyl)silyl]oxyethyl]-5-chloro-indol-3-yl]piperidine-1-carbonyl]-4,4a,5,7,8,8a-hexahydropyrido[4,3-b][1,4]oxazin-3-one], for which the pIC50 is 6.17.

The compound `N#CC(c1ccc(F)cc1)C1CCN(C(=O)N2CC[C@@H]3OCC(=O)N[C@@H]3C2)CC1` (stereo partly drawn) [Example 48, 2-(4-Fluorophenyl)-2-(1-((4aR,8aS)-3-oxooctahydro-2H-pyrido[4,3-b][1,4]oxazine-6-carbonyl)piperidin-4-yl)acetonitrile] gave a pIC50 of 6.44.

Take `O=C1CO[C@H]2CCN(C(=O)N3CCN(C(c4ccccc4)C(F)(F)F)CC3)C[C@H]2N1` (stereo partly drawn) [Example 49, (4aR,8aS)-6-(4-(2,2,2-Trifluoro-1-phenylethyl)piperazine-1-carbonyl)hexahydro-2H-pyrido[4,3-b][1,4]oxazin-3(4H)-one]: the pIC50 was 5.96.

For `O=C1CO[C@H]2CCN(C(=O)N3CCC(C(OCC(F)(F)F)c4ccc(F)cc4)CC3)C[C@H]2N1` (stereo partly drawn) [Example 50, (4aR,8aS)-6-(4-((4-Fluorophenyl)(2,2,2-trifluoroethoxy)methyl)piperidine-1-carbonyl)hexahydro-2H-pyrido[4,3-b][1,4]oxazin-3(4H)-one], the pIC50 was 8.05.

For `Cc1noc(CC(c2ccc(F)cc2)C2CCN(C(=O)N3CC[C@@H]4OCC(=O)N[C@@H]4C3)CC2)n1` (stereo partly drawn) [Example 51, (4aR,8aS)-6-(4-(1-(4-Fluorophenyl)-2-(3-methyl-1,2,4-oxadiazol-5-yl)ethyl)piperidine-1-carbonyl)hexahydro-2H-pyrido[4,3-b][1,4]oxazin-3(4H)-one], the pIC50 was 7.20.

Take `O=C1CO[C@H]2CCN(C(=O)N3CCC(C4(c5ccc(C(F)(F)F)cc5)CC4)CC3)C[C@H]2N1` [Example 52, (4aR,8aS)-6-(4-(1-(4-(Trifluoromethyl)phenyl)cyclopropyl)piperidine-1-carbonyl)hexahydro-2H-pyrido[4,3-b][1,4]oxazin-3(4H)-one]: the pIC50 is 7.68.

Consider `O=C1CO[C@H]2CCN(C(=O)N3CCN(C(c4ccc(F)cc4F)C(F)(F)F)CC3)C[C@H]2N1` (stereo partly drawn) [Example 53, (4aR,8aS)-6-(4-(1-(2,4-Difluorophenyl)-2,2,2-trifluoroethyl)piperazine-1-carbonyl)hexahydro-2H-pyrido[4,3-b][1,4]oxazin-3(4H)-one], for which the pIC50 is 6.38.

The compound `O=C1CO[C@H]2CCN(C(=O)N3CC(C(O)(c4ccc(F)cc4)c4ccc(F)cc4)C3)C[C@H]2N1` [Example 54, (4aR,8aS)-6-(3-(Bis(4-fluorophenyl)(hydroxy)methyl)azetidine-1-carbonyl)hexahydro-2H-pyrido[4,3-b][1,4]oxazin-3(4H)-one] gave a pIC50 of 6.09.

`O=C1CO[C@H]2CCN(C(=O)N3CC(C(F)(c4ccc(F)cc4)c4ccc(F)cc4)C3)C[C@H]2N1` [Example 55, (4aR,8aS)-6-(3-(Fluorobis(4-fluorophenyl)methyl)azetidine-1-carbonyl)hexahydro-2H-pyrido[4,3-b][1,4]oxazin-3(4H)-one]: the pIC50 was 6.38.

Compound `O=C1CO[C@H]2CCN(C(=O)N3CCC(C(COCC(F)(F)F)c4ccc(F)cc4)CC3)C[C@H]2N1` (stereo partly drawn) [Example 56, (4aR,8aS)-6-(4-(1-(4-Fluorophenyl)-2-(2,2,2-trifluoroethoxy)ethyl)piperidine-1-carbonyl)hexahydro-2H-pyrido[4,3-b][1,4]oxazin-3(4H)-one] gave a negative logarithm of the IC50 (pIC50) of 7.68.

Regarding `O=C1CO[C@H]2CCN(C(=O)N3CCC(c4ccnc(C5CC5)c4)CC3)C[C@H]2N1` [Example 61, (4aR,8aS)-6-(4-(2-Cyclopropylpyridin-4-yl)piperidine-1-carbonyl)hexahydro-2H-pyrido[4,3-b][1,4]oxazin-3(4H)-one], the negative logarithm of the IC50 (pIC50) is 6.24.

For the origin of these results see patent publication US20230117324A1, “OXAZINE MONOACYLGLYCEROL LIPASE (MAGL) INHIBITORS” (Hoffmann-La Roche Inc., priority 2018, published 2023).
